Measurements reported in US9302999B2, “Substituted triazoles as herbicides” (E. I. DU PONT DE NEMOURS AND COMPANY, priority 2012, dated 2016).

Columns and labels:
Type in all cases: in vivo
[1] = system: canarygrass (Phalaris minor); test: Test D pre-/postemergence: canarygrass
Procedure, shortened: (§1)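 Visual 0–100 rating versus untreated controls (0 no effect, 100 complete control), taken 14 to 21 days after treatment in a controlled growth environment. Preemergence: silt loam soil. Postemergence: peat moss/vermiculite medium, plants 2 to 18 cm, 1- to 4-leaf stage. Solvent mixture with surfactant.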

[2] = system: barnyardgrass (Echinochloa crus-galli); test: Test E pre-/postemergence: barnyardgrass; conditions: scale 0 to 100
Procedure, shortened: (§2)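 Preemergence: seeds sown in silt loam soil and treated with test chemicals in non-phytotoxic solvent with surfactant. Postemergence: plants at 2 to 18 cm (1- to 4-leaf stage) in peat/vermiculite medium were sprayed with the same formulations. After 14 to 21 days in greenhouse, injury was rated visually against controls, 0 (no effect) to 100 (complete control).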

[3] = system: foxtail, giant (giant foxtail, Setaria faberii); test: Test E pre-/postemergence: foxtail, giant; conditions: Preemergence, scale 0 to 100
Procedure, shortened: as §2

[4] = system: ryegrass, Italian (Italian ryegrass, Lolium multiflorum); test: Test D pre-/postemergence: ryegrass, Italian
Procedure, shortened: as §1

[5] = Postemergence, 31 g ai/ha, scale 0 to 100 (0 no effect, 100 complete control)
[6] = Postemergence, 62 g ai/ha, scale 0 to 100 (0 no effect, 100 complete control)
[7] = Postemergence, 125 g ai/ha, scale 0 to 100, 0 no effect, 100 complete control
[8] = Postemergence, 250 g ai/ha, scale 0 to 100 (0 no effect, 100 complete control)
[9] = Postemergence, 16 g ai/ha, scale 0 to 100
[10] = Preemergence, 16 g ai/ha, scale 0 to 100, 0 no effect, 100 complete control
[11] = Preemergence, 31 g ai/ha, scale 0 to 100, 0 no effect, 100 complete control
[12] = Preemergence, 62 g ai/ha, scale 0 to 100
[13] = Preemergence, 125 g ai/ha, scale 0 to 100
[14] = Preemergence, 250 g ai/ha, scale 0 to 100

Cc1nn(-c2ccc(C(F)(F)F)cc2)nc1Oc1ccnc(C(F)(F)F)c1 [Compound 120]
Plant response rating: Canarygrass [1, 5]: 5 | Plant response rating: Canarygrass [1, 6]: 20 | Plant response rating: Canarygrass [1, 7]: 90 | Plant response rating: Canarygrass [1, 8]: 95 | Plant response rating, Canarygrass [1, 9]: 0 | Plant response rating, Canarygrass [1, 10]: 0 | Plant response rating, Canarygrass [1, 11]: 90 | Plant response rating, Canarygrass [1, 12]: 100 | Plant response rating, Canarygrass [1, 13]: 100 | Plant response rating, Canarygrass [1, 14]: 100 | Plant response rating: Barnyardgrass ([2]; Postemergence, 8 g ai/ha): 10 | Plant response rating: Barnyardgrass ([2]; Postemergence, 16 g ai/ha): 10 | Plant response rating: Barnyardgrass ([2]; Postemergence, 31 g ai/ha): 20 | Plant response rating: Barnyardgrass ([2]; Postemergence, 62 g ai/ha): 25 | Plant response rating: Barnyardgrass ([2]; Postemergence, 125 g ai/ha): 30 | Plant response rating: Barnyardgrass ([2]; Preemergence, 16 g ai/ha): 0 | Plant response rating: Barnyardgrass ([2]; Preemergence, 31 g ai/ha): 0 | Plant response rating: Barnyardgrass ([2]; Preemergence, 62 g ai/ha): 5 | Plant response rating: Barnyardgrass ([2]; Preemergence, 125 g ai/ha): 25 | Plant response rating: Barnyardgrass ([2]; Preemergence, 250 g ai/ha): 100 | Plant response rating: Foxtail, Giant ([3]; 16 g ai/ha): 85 | Plant response rating: Foxtail, Giant ([3]; 31 g ai/ha): 100 | Plant response rating: Foxtail, Giant ([3]; 62 g ai/ha): 100 | Plant response rating: Foxtail, Giant ([3]; 125 g ai/ha): 100 | Plant response rating: Foxtail, Giant ([3]; 250 g ai/ha): 100 | Plant response rating: Ryegrass, Italian [4, 5]: 5 | Plant response rating: Ryegrass, Italian [4, 6]: 10 | Plant response rating: Ryegrass, Italian [4, 7]: 15 | Plant response rating: Ryegrass, Italian [4, 8]: 30 | Plant response rating, Ryegrass, Italian [4, 9]: 5 | Plant response rating, Ryegrass, Italian [4, 10]: 0 | Plant response rating, Ryegrass, Italian [4, 11]: 5 | Plant response rating, Ryegrass, Italian [4, 12]: 40 | Plant response rating, Ryegrass, Italian [4, 13]: 80 | Plant response rating, Ryegrass, Italian [4, 14]: 100
